The record followed here is ChEMBL document CHEMBL3286140, “Synthesis and biological evaluation of salpichrolide analogs as antiestrogenic agents” (Eur J Med Chem, 2014).

The subject of data set [1] is MCF7. In words: Inhibition of 17beta-estradiol-induced in ERalpha positive human MCF7 cells proliferation assessed as [3H]-thymidine incorporation after 72 hrs by liquid scintillation counting. Format: functional, cell-based. Background: Uptake of a labelled nucleoside into DNA is a usual measure of proliferation.
Data set [2] has as its system MCF7. Description: Inhibition of 17beta-estradiol-induced in ERalpha positive human MCF7 cells proliferation assessed as [3H]-thymidine incorporation at 10 nM after 72 hrs by liquid scintillation counting. It is filed as functional, cell-based.
Data set [3] concerns MDA-MB-231. In words: Cytotoxicity against ERalpha negative human MDA-MB-231 cells at 10 nM and 1 uM. The note with it: mda-mb-231, 0.01 µM. It is filed as cell-based.
Data set [4] deals with MCF7. Description: Cytotoxicity against ERalpha positive human MCF7 cells at 10 nM and 1 uM. Conditions: mcf7, 0.01 µM. Format: cell-based.
Data set [5] concerns MCF7. In words: Inhibition of 17beta-estradiol-induced in ERalpha positive human MCF7 cells proliferation assessed as [3H]-thymidine incorporation at 1 uM after 72 hrs by liquid scintillation counting. Format: functional, cell-based.
Data set [6] deals with MCF7. In words: Inhibition of 17beta-estradiol-induced in ERalpha positive human MCF7 cells proliferation assessed as [3H]-thymidine incorporation at 100 nM after 72 hrs by liquid scintillation counting. It is filed as functional, cell-based.
Data set [7] relates to MDA-MB-231. Description: Inhibition of 17beta-estradiol-induced in ERalpha negative human MDA-MB-231 cells proliferation assessed as [3H]-thymidine incorporation after 72 hrs by liquid scintillation counting. It is filed as functional, cell-based.

SMILES strings stand for the structures. Active and inactive are the calls of the source. The rule behind the calls is not given here.

Usually IC50 stands for the concentration that gives 50% inhibition. In the case of `C[C@]12CC[C@@H]3c4ccc(O)cc4C[C@@H](CCCCCCCCC[S+]([O-])CCCC(F)(F)C(F)(F)F)[C@H]3[C@@H]1CC[C@@H]2O` (stereo not given in full) [FULVESTRANT], the IC50 in the data set with MCF7 [1] worked out at 1.9 nM. In addition, the inhibition result in the data set on MCF7 [2] is “Active”.

Consider `C[C@@H](c1cc(O)c2c(c1)CC[C@H]1[C@H]2C[C@@H]2O[C@@]23CC=CC(=O)[C@]13C)[C@@H]1C[C@@H]2O[C@@H]2[C@H](O)O1` [SALPICHROLIDE G], for which the Activity result in the data set with MDA-MB-231 [3] and in the data set on MCF7 [4] was “Toxic” throughout. Further, the IC50 in the data set with MCF7 [1] amounted to 140 nM.

Take `C[C@@H](c1ccc2c(c1)CC[C@H]1[C@H]2C[C@@H]2O[C@@]23CC=C[C@H](O)[C@]13C)[C@H]1C[C@]2(C)O[C@]2(C)[C@H](O)O1`: the IC50 with MCF7 [1] came out at 18 nM.

Regarding `CC(=O)c1ccc2c(c1)CC[C@H]1[C@H]2CC[C@H]2CC=C[C@H](O)[C@@]21C`, the inhibition entry in the data set on MCF7 [5] was “inactive”.

For `CC(=O)c1ccc2c(c1)CC[C@H]1[C@H]2C[C@@H]2O[C@@]23C[C@@H](O)CC[C@]13C`, the inhibition entry with MCF7 [1] was “inactive”.

As to `CC(=O)c1ccc2c(c1)CC[C@H]1[C@H]2CC[C@H]2CC=CC(=O)[C@@]21C`, in the data set on MCF7 [6], the inhibition result was “Active”. Also, in the data set with MCF7 [1], the IC50 amounted to 50 nM. The inhibition entry with MDA-MB-231 [7] is “inactive”.

As for `CC(=O)c1ccc2c(c1)CC[C@H]1[C@H]2CC[C@H]2C[C@@H](O)CC[C@@]21C`, the inhibition result in the data set on MCF7 [6] was “Active”. In the data set on MCF7 [1], the IC50 turned out to be 330 nM. The inhibition entry in the data set with MDA-MB-231 [7] was “inactive”.

On to `CC(=O)c1ccc2c(c1)CC[C@H]1[C@H]2C[C@H]2O[C@]23C[C@@H](O)CC[C@]13C`, for which the inhibition entry in the data set with MCF7 [5] was “inactive”.
